Tested on: macular degeneration patients
Assay: Clinical study of geographic atrophy progression in macular degeneration patients, treated versus placebo cohort
Format: in vivo, human
Experimental: This example illustrates the reduction in the rate of macular degeneration progression in a cohort of patients treated with deuterated docosahexaenoic acid ethyl ester similar to that of Example 1, as compared to a cohort of placebo patients. Specifically, the treated cohort […]. The patients are maintained on this dosing regimen throughout the clinical study. Periodic measurements of further geographic atrophy development are obtained.
Dosing is continued for 6 or 12, or 18 or 24 months. At that time, the average extent of geographic atrophy progression is measured for each cohort. The efficacy of the treatment protocol is evaluated by comparing the extent of geographic atrophy progression in a treated population against a placebo population. […]
Alternatively, the rate of disease progression for an individual patient can be assessed by the following: • a) determine the rate of disease progression for said individual patient by measuring the extent of geographic atrophy in the patient's retina at the start of therapy and at 6, 12, 18 or 24 months post start of therapy and assigning a […] value “D” to that differential; • b) determine the average rate of disease progression for a cohort of patients treated with placebo (safflower oil) by measuring the extent of geographic atrophy in each of the patient's retina at the start of therapy and at 6, 12, 18 or 24 months post start of therapy, determining the difference between the extent of atrophy at the start of therapy and at the later time point, and then obtaining an average for that differential and assigning a second value designated as “E” to that average differential; • c) calculating the difference between D and E and assign “F” to that value (e.g, E−D=F); • d) assign a positive value to “F” if E is greater than D; • e) assign a negative value to “F” if E is less than D; and • f) divide F by E and multiply by 100 [(F/E)×100]. […]

[1] = 6, 12, 18 or 24 months post start of therapy, placebo safflower oil

Q: What does the source list for “Deuterated Docosahexaenoic Acid Ethyl Ester”?
A: reduction in the rate of disease progression (extent of geographic atrophy progression, treated population against placebo population) (250 mg/day, dosing for 6 or 12, or 18 or 24 months, versus safflower oil placebo cohort): statistically significant reduction in the rate of disease progression; percent reduction in geographic atrophy, individual treated patient vs placebo cohort [(F/E)×100] [1]: positive percent reduction in geographic atrophy that is statistically significant; percent reduction in geographic atrophy, treated cohort vs placebo cohort [(C/B)×100] [1]: positive percent reduction in geographic atrophy that is statistically significant

From US20250099415A1, “Methods for Inhibiting the Progression of Oxidative Retinal Disease” (BioJiva LLC, priority 2021, published 2025)
